Laboratory results reported in ChEMBL document CHEMBL5500346, “Targeting EGFR degradation by autophagosome degraders” (Eur J Med Chem, 2024).
Active and inactive are the calls of the source. No cut-off for these calls is given here.

How the values were obtained:
[1] = molecular target: T1, Microtubule-associated protein 1 light chain 3 beta/Epidermal growth factor receptor (Homo sapiens, UniProt P00533+Q9GZQ8); test: ATTEC activity at LC3B/EGFR in EBSS-treated human HCC827 cells assessed as protein degradation by Western blot analysis; type: cell-based
[2] = test system: PC-9; test: In vivo ATTEC activity at LC3B/EGFR in human PC-9 cells implanted in NOD-SCID mouse assessed as protein degradation at 20 mg/kg, ip measured after 24 hrs by Western blot analysis; type: functional, organism-based
[3] = molecular target: T1, Microtubule-associated protein 1 light chain 3 beta/Epidermal growth factor receptor; test: ATTEC activity at LC3B/EGFR in MLN4924-treated human HCC827 cells assessed as protein degradation at 1 uM incubated for 12 hrs by Western blot analysis; type: cell-based
[4] = Toxicity in C57BL/6 mouse assessed as serum ALP level at 200 mg/kg, ip measured after 24 hrs (reference value: 250.654 U/L); type: organism-based; conditions: in vivo
[5] = test system: PC-9; test: Anti-tumor activity against human PC-9 cells implanted in NOD-SCID mouse at 5 mg/kg, ip administered every other day for 3 weeks relative to control; type: functional; conditions: PC-9, 504 h, read-out: TGI
[6] = test system: NCI-H3255; test: Inhibition of colony formation in human NCI-H3255 cells incubated for 2 weeks by crystal violet staining based analysis; type: functional, cell-based; conditions: dose 0.1-10 µM
[7] = Half life in Sprague-Dawley rat at 20 mg/kg, po; type: ADME, organism-based; conditions: in vivo
[8] = Toxicity in C57BL/6 mouse assessed as serum ALT level at 100 mg/kg, ip measured after 24 hrs (reference value: 42.554 U/L); type: organism-based; conditions: in vivo
[9] = Toxicity in C57BL/6 mouse assessed as serum uric acid level at 200 mg/kg, ip measured after 24 hrs (reference value: 78.784 umol/L); type: organism-based; conditions: in vivo
[10] = Toxicity in C57BL/6 mouse assessed as serum urea level at 200 mg/kg, ip measured after 24 hrs (reference value: 18.934 mmol/L); type: organism-based; conditions: in vivo
[11] = Toxicity in C57BL/6 mouse assessed as serum ALB level at 100 mg/kg, ip measured after 24 hrs (reference value: 40.01 g/L); type: organism-based; conditions: in vivo
[12] = Toxicity in C57BL/6 mouse assessed as serum DBIL level at 200 mg/kg, ip measured after 24 hrs (reference value: 7.868 umol/L); type: organism-based; conditions: in vivo
[13] = molecular target: T1, Microtubule-associated protein 1 light chain 3 beta/Epidermal growth factor receptor; test: ATTEC activity at LC3B/EGFR in human HCC827 cells assessed as protein degradation by immunoblot analysis; type: cell-based
[14] = Toxicity in C57BL/6 mouse assessed as serum creatinine level at 100 mg/kg, ip measured after 24 hrs (reference value: 32.258 umol/L); type: organism-based; conditions: in vivo
[15] = test system: NCI-H3255; test: Antiproliferative activity against human NCI-H3255 cells incubated for 72 hrs by CCK8 assay; type: functional, cell-based; conditions: NCI-H3255, 72 h
[16] = Toxicity in C57BL/6 mouse assessed as serum GGT level at 200 mg/kg, ip measured after 24 hrs (reference value: 1.62 U/L); type: organism-based; conditions: in vivo
[17] = Toxicity in C57BL/6 mouse assessed as serum ALB level at 200 mg/kg, ip measured after 24 hrs (reference value: 40.01 g/L); type: organism-based; conditions: in vivo
[18] = molecular target: T1, Microtubule-associated protein 1 light chain 3 beta/Epidermal growth factor receptor; test: ATTEC activity at LC3B/EGFR in Baf-treated human HCC827 cells assessed as protein degradation at 1 uM incubated for 16 hrs by Western blot analysis; type: cell-based
[19] = test system: PC-9; test: Antiproliferative activity against human PC-9 cells incubated for 72 hrs by CCK8 assay; type: functional, cell-based; conditions: PC-9, 72 h
[20] = Toxicity in C57BL/6 mouse assessed as serum AST level at 100 mg/kg, ip measured after 24 hrs (reference value: 234.682 U/L); type: organism-based; conditions: in vivo
[21] = test system: PC-9; test: Anti-tumor activity against human PC-9 cells implanted in NOD-SCID mouse at 10 mg/kg, ip administered every other day for 3 weeks relative to control; type: functional; conditions: PC-9, 504 h, read-out: TGI
[22] = molecular target: T1, Microtubule-associated protein 1 light chain 3 beta/Epidermal growth factor receptor; test: ATTEC activity at LC3B/EGFR in human HCC827 cells assessed as protein degradation at 1 uM measured after 12 hrs by Western blot analysis relative to control; type: cell-based
[23] = molecular target: T1, Microtubule-associated protein 1 light chain 3 beta/Epidermal growth factor receptor; test: ATTEC activity at LC3B/EGFR in human HCC827 cells assessed as increase in density of lysosomes incubated for 4 hrs by LysoTracker Red staining based analysis; type: cell-based
[24] = molecular target: T1, Microtubule-associated protein 1 light chain 3 beta/Epidermal growth factor receptor; test: ATTEC activity at LC3B/EGFR in chloroquine-treated human HCC827 cells assessed as protein degradation at 1 uM incubated for 16 hrs by Western blot analysis; type: cell-based
[25] = molecular target: T1, Microtubule-associated protein 1 light chain 3 beta/Epidermal growth factor receptor; test: ATTEC activity at LC3B/EGFR in CHX-treated human HCC827 cells assessed as protein degradation at 1 uM incubated for 12 hrs by Western blot analysis; type: cell-based

Question: Which Activity [1] does the source give for `COc1cc2ncnc(Nc3ccc(F)c(Cl)c3)c2cc1OCCOCCOCCOCCNC(=O)COc1c(Br)cc(/C=C2\C(=O)Nc3ccc(I)cc32)cc1Br` here?
Answer: Active

Question: And the Activity [2]?
Answer: Active

Question: And the Activity [3]?
Answer: Active

Question: And the Activity [4]?
Answer: 177.394 U/L

Question: And the inhibition in vivo at 5 mg/kg [5]?
Answer: 35%

Question: What about the inhibition [6] of the same compound?
Answer: Dose-Dependent Effect

Question: What about the half-life [7] of the same compound?
Answer: 18.4 min

Question: And the Activity [8]?
Answer: 65.504 U/L

Question: What about the Activity [9] of the same compound?
Answer: 49.734 µmol/L

Question: And the Activity [10]?
Answer: 19.029 mmol/L

Question: What about the Activity [11] of the same compound?
Answer: 35.48 g/L

Question: What about the Activity [12] of the same compound?
Answer: 6.434 µmol/L

Question: And the DC50 [13]?
Answer: 980 nM

Question: And the Activity [14]?
Answer: 27.8 µmol/L

Question: What about the IC50 [15] of the same compound?
Answer: 3000 nM

Question: And the Activity [16]?
Answer: 1.712 U/L

Question: What about the Activity [17] of the same compound?
Answer: 40.048 g/L

Question: What about the Activity [18] of the same compound?
Answer: inactive

Question: And the IC50 [19]?
Answer: 5610 nM

Question: What about the Activity [20] of the same compound?
Answer: 229.632 U/L

Question: And the inhibition in vivo at 10 mg/kg [21]?
Answer: 51.6%

Question: And the Activity [22]?
Answer: 68%

Question: And the Activity [23]?
Answer: Active

Question: And the Activity [24]?
Answer: inactive

Question: What about the Activity [25] of the same compound?
Answer: inactive
